The values that follow come from PubChem BioAssay (NCI).

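Assay format: 96-well plates, 48-hour exposure. TGI denotes the concentration required for complete inhibition of growth.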

Some test systems named below: A498 renal; HCC-2998 colon; HT29 colon; KM12 colon; MDA-MB-435; MDA-N; NCI-H226 lung; NCI/ADR-RES ovarian; OVCAR-3 ovarian; OVCAR-8 ovarian; SF-268 CNS; SF-295 CNS; SNB-75 CNS; T-47D breast; TK-10 renal; UACC-62 melanoma.
Assay in all cases: NCI tumour cell line growth inhibition, 48 h

In the case of `COc1ccc2nc(N/N=C/c3sccc3C)cc(C)c2c1`, the TGI was 26.9 µM in the assay on A498 renal; 41.2 µM in the assay on HCC-2998 colon; 24 µM in the assay on HT29 colon; 38.3 µM with KM12 colon; 43.9 µM in the assay with MDA-MB-435; 39.4 µM in the assay on MDA-N. Moreover, the TGI with NCI-H226 lung is 42.6 µM; in the assay with NCI/ADR-RES ovarian, 55.1 µM; with OVCAR-3 ovarian it was 45.8 µM; with OVCAR-8 ovarian, more than 100 µM; with SF-268 CNS it was 47.8 µM; with SF-295 CNS, 21.7 µM. Moreover, the TGI was 37.1 µM in the assay with SNB-75 CNS, more than 100 µM in the assay on T-47D breast, 28.1 µM in the assay on TK-10 renal and 27.1 µM in the assay with UACC-62 melanoma.

In the case of `COC(=O)[C@@H]1C=C[C@H](OC2OC(COC(C)=O)C(OC(C)=O)C(OC(C)=O)C2OC(C)=O)n2c(=O)n(-c3ccccc3)c(=O)n21` (stereo partly specified), the TGI in the assay with A498 renal worked out at 20 µM; in the assay with HCC-2998 colon it was 21.9 µM; in the assay on HT29 colon, 3.64 µM; in the assay on KM12 colon, 19.6 µM; with MDA-MB-435 it was 11.9 µM; in the assay on MDA-N it was 7.41 µM. Besides, the TGI in the assay on NCI-H226 lung amounted to 40.4 µM; with NCI/ADR-RES ovarian, 31.4 µM; in the assay on OVCAR-3 ovarian it was 3.24 µM; in the assay on OVCAR-8 ovarian it was 8.03 µM; in the assay with SF-268 CNS it was 8.17 µM; in the assay with SF-295 CNS, 15.5 µM. Moreover, the TGI with SNB-75 CNS came to 13 µM; in the assay with T-47D breast, 8.75 µM; in the assay with TK-10 renal, 3.74 µM; in the assay with UACC-62 melanoma, 8.89 µM.

On to `CNc1ncccc1Nc1cc(=O)n2c3cccnc3n(C)c2c1`, for which the TGI in the assay on A498 renal, in the assay with HCC-2998 colon, with HT29 colon, in the assay with KM12 colon, in the assay with MDA-MB-435 and in the assay with MDA-N was more than 100 µM each time. The TGI with NCI-H226 lung, in the assay on NCI/ADR-RES ovarian, in the assay on OVCAR-3 ovarian, in the assay with OVCAR-8 ovarian, with SF-268 CNS and in the assay on SF-295 CNS was more than 100 µM throughout. The TGI in the assay on SNB-75 CNS was 78.1 µM; in the assay on T-47D breast, more than 100 µM; in the assay with TK-10 renal, more than 100 µM; with UACC-62 melanoma, more than 100 µM.

As for `C=CCn1c(N)c(C#N)c(C#N)c1CCC`, the TGI in the assay on A498 renal, in the assay on HCC-2998 colon, in the assay with HT29 colon, in the assay on KM12 colon, with MDA-MB-435 and in the assay with MDA-N was more than 100 µM throughout. For the same compound, the TGI in the assay on NCI-H226 lung, with NCI/ADR-RES ovarian, with OVCAR-3 ovarian, in the assay on OVCAR-8 ovarian, with SF-268 CNS and in the assay with SF-295 CNS was more than 100 µM each time. Also, the TGI in the assay with SNB-75 CNS, with T-47D breast, in the assay on TK-10 renal and in the assay with UACC-62 melanoma was more than 100 µM each time.

For the compound `CCOC(=O)c1ccc(N=C/C=C(\Nc2ccc(C(=O)OCC)cc2)C23CC4CC(CC(C4)C2)C3)cc1`, the TGI with A498 renal, in the assay with HCC-2998 colon, in the assay with HT29 colon, in the assay on KM12 colon, with MDA-MB-435 and in the assay with MDA-N was more than 100 µM in each case. In addition, the TGI with NCI-H226 lung, with NCI/ADR-RES ovarian, in the assay with OVCAR-3 ovarian, in the assay with OVCAR-8 ovarian, in the assay on SF-268 CNS and in the assay on SF-295 CNS was more than 100 µM throughout. For the same compound, the TGI in the assay on SNB-75 CNS, with T-47D breast, in the assay on TK-10 renal and with UACC-62 melanoma was more than 100 µM throughout.

Take `COC(=O)C1=C(OC(=O)/C(=C/c2ccccc2)c2ccc(Cl)cc2Cl)C(C(=O)OC)[C@@]2(O)[C@@H](C(=O)OC)[C@H](C)C[C@@H]1[C@@H]2C(=O)OC` (stereo partly specified): the TGI in the assay with A498 renal, in the assay on HCC-2998 colon, with HT29 colon, with KM12 colon, in the assay on MDA-MB-435 and in the assay with MDA-N was more than 100 µM in each case. The TGI with NCI-H226 lung, in the assay on NCI/ADR-RES ovarian, in the assay with OVCAR-3 ovarian, in the assay on OVCAR-8 ovarian, in the assay on SF-268 CNS and with SF-295 CNS was more than 100 µM in each case. For the same compound, the TGI with SNB-75 CNS, with T-47D breast, with TK-10 renal and in the assay on UACC-62 melanoma was more than 100 µM in each case.
